# Article PMC11423303, “Rational Design of Dual-Domain Binding Inhibitors for N-Acetylgalactosamine Transferase 2 with Improved Selectivity over the T1 and T3 Isoforms” (JACS Au, 2024)
# Read-outs that look alike come from different tables or passages of the source. Residues, ends and D or L forms follow the SMILES beside them. *: point of attachment. αGalNAc = CC(=O)N[C@@H]1[C@@H](O)[C@@H](O)[C@@H](CO)O[C@@H]1*; X2 = c1ccc2nc(C*)ccc2c1; X1 = c1csc(C*)c1
# Columns and labels:
# [1] = target: T1, GalNAc-T2 (Homo sapiens, UniProt Q10471); assay: Radiometric GalNAc-T2 inhibition assay with labeled UDP-GalNAc donor and MUC1a acceptor peptide; assay type: biochemical; conditions: for Relative inhibitory activity against GalNAc-T2: normalized concentration of 500 μM
# T1 construct: made in house; host or cells: Pichia pastoris
# T1 sequence (Q10471 whole entry): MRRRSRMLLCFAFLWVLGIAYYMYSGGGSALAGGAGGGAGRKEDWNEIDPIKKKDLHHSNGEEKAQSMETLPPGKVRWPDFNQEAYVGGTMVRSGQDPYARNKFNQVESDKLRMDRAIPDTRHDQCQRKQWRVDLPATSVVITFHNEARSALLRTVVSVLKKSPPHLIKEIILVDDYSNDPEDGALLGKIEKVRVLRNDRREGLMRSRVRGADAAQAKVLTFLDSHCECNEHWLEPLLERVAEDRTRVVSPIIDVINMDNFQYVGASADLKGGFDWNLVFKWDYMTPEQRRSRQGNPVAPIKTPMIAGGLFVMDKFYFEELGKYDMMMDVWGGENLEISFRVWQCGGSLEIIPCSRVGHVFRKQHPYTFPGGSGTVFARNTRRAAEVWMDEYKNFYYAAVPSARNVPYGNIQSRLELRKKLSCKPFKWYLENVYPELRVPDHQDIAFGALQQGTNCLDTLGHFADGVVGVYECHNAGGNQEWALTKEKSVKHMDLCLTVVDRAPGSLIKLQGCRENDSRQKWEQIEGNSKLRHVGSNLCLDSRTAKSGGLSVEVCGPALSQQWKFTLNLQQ
# Protocol: The glycosylation products were isolated from the radiolabeled donors through chromatographic techniques and analyzed by scintillation counting.
# (§1) 347 4. BIOCHEMICAL STUDIES
# (§2) 348 4.1. Reagents and substrates
# (§3) 349 Stock solutions of inhibitor (5mM) and MUC1a substrate (4mM) were prepared from
# (§4) 350 lyophilized powders. Additional serial dilutions of inhibitor were prepared of 1 mM, 200 µM, 50
# (§5) 351 µM, 10 µM, and 2 µM and the MUC1a substrate of 62.5 µM. Fully N-acetylated UDP-
# (§6) 352 [ 3H]GalNAc was obtained from American Radiolabeled Chemicals Inc (St. Louis, MO) whereas
# (§7) 353 nonlabelled UDP-GalNAc was obtained from Millipore-Sigma (St. Louis, MO). A 0.2 mM stock
# (§8) 354 solution of radiolabeled UDP-GalNAc was prepared by adding UDP-[ 3H]GalNAc to unlabeled
# (§9) 355 UDP-GalNAc to give ~6 x 10^8 DPM/µmole. ScintiVerse BD Cocktail fluid was obtained from
# (§10) 356 Fisher Scientific (Pittsburgh, PA). Liquid scintillation counting was performed on a Beckman
# (§11) 357 LS 6500 Scintillation Counter. BioPureSPN TARGA C18 macro spin columns were obtained
# (§12) 358 from The Nest Group Inc. (Ipswich, MA).
# (§13) 360 4.2. GalNAc-Ts expression
# (§14) 361 Human GalNAc-T1 was a gift of Kelley Moremen (CCRC, University of Georgia) and
# (§15) 362 expressed in HEK293F cells. Human GalNAc-T2, and -T3 were obtained from Ramon
# 363 Hertado-Guerrero (University of Zaragosa, SP) and expressed in Pichia pastoris.
# 366 The glycomimetic inhibitors were optimized using GalNAc-T2 activity assays as previously
# 367 described. The reactions were carried out in a total volume of 50 µl, containing 100 nM
# 369 cpm/nm) as the sugar donor. The designed glycomimetics were tested at a range of
# 371 conducted in 25 mM cacodylate buffer (pH 7.4) with 10 mM MnCl 2 and 0.25% Triton X-100,
# 372 and incubated at 22°C for 30 minutes. Excess UDP-[ 14C]GalNAc was removed from the
# 373 glycosylated peptide using DOWEX 1 chromatography, the product was subsequently
# 374 analyzed through scintillation counting.
# 377 protocol was used except UDP-[ 3H]GalNAc was utilized and the products isolated on Targa
# 378 C18 spin columns as previously described. Final enzyme concentrations were 100 nM for
# 379 GalNAc-T1 and -T3 and 200 nM for GalNAc-T2 while final MUC1a substrate and inhibitor 5
# 380 concentrations were as above. Reactions were incubated at 22°C for 30min for GalNAc-T1
# 381 and -T3 and 3h for GalNAc-T2. After incubation, reactions were quenched with 200µL of 0.5%
# 382 TFA in H 2O and passed through the spin columns. Columns were extensively washed with
# 383 0.1% TFA/H 2O and glycopeptide products eluted with 0.1% TFA in 50/50 acetonitrile/H2O
# 384 followed by 100% acetonitrile. The different eluates were analyzed by scintillation counting on
# 385 a Beckman LS 6500 Scintillation Counter. Relative percent peptide glycosylation was
# 386 calculated from the obtained 3H DPM as described in Ballard et al 2023. Reactions were
# 387 repeated twice for each transferase. After subtracting the no substrate blank, under these
# 390 Percent activity was plotted against the log concentration of inhibitor 19 in µM. […]
# [2] = test system: GalNAc-T2; set-up: method as in PMID 29061849; conditions: read-out: IC50 against GalNAc-T2; cited from earlier work
# [3] = test system: GalNAc-T3; set-up: method as in PMID 28362263; conditions: cited from earlier work
# [4] = test system: GalNAc-T2; set-up: method as in PMID 28362263; conditions: cited from earlier work
# [5] = test system: GalNAc-T6; set-up: method as in PMID 28362263; conditions: cited from earlier work
# [6] = test system: FGF23 levels; set-up: method as in PMID 28362263; conditions: chronic kidney disease treatment; cited from earlier work
# [7] = test system: GalNAc-T1; set-up: method as in Wandall H. H. et al., [16]; conditions: ref Wandall H. H. et al., [16], cited from earlier work
# [8] = test system: GalNAc-T2; set-up: method as in Wandall H. H. et al., [16]; conditions: ref Wandall H. H. et al., [16], cited from earlier work
# [9] = test system: GalNAc-T3; set-up: method as in Wandall H. H. et al., [16]; conditions: ref Wandall H. H. et al., [16], cited from earlier work
# [10] = target: T2, GalNAc-T1 (Homo sapiens, UniProt Q10472); assay: Radiometric GalNAc-T1 inhibition assay with UDP-[3H]GalNAc and MUC1a acceptor peptide; assay type: biochemical
# T2 construct: made in house; host or cells: HEK293F cells (gift of Kelley Moremen, CCRC, University of Georgia)
# T2 sequence (Q10472 1-559): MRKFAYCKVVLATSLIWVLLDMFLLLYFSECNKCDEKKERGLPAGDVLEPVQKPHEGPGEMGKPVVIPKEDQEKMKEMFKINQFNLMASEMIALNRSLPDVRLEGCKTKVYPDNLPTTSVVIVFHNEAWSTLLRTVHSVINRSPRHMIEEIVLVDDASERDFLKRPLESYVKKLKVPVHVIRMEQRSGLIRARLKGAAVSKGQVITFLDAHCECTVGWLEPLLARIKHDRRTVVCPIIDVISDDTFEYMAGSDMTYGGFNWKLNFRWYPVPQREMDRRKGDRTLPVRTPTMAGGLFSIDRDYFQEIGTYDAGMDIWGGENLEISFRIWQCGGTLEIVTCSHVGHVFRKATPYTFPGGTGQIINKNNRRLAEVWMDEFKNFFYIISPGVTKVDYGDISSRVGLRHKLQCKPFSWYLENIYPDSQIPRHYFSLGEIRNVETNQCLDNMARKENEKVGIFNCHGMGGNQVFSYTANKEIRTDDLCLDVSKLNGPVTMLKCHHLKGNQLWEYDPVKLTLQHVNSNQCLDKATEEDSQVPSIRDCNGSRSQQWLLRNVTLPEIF
# Protocol: as §1, §2, §3, §4, §5, §6, §7, §8, §9, §10, §11, §12, §13, §14, §15
# (§16) 363 Hertado-Guerrero (University of Zaragosa, SP) and expressed in Pichia pastoris. […]
# 367 described. […]
# (§17) 384 followed by 100% acetonitrile. The different eluates were analyzed by scintillation counting on […]
# (§18) 386 calculated from the obtained 3H DPM as described in Ballard et al 2023. […]
# [11] = target: T3, GalNAc-T3 (Homo sapiens, UniProt Q14435); assay: Radiometric GalNAc-T3 inhibition assay with UDP-[3H]GalNAc and MUC1a acceptor peptide; assay type: biochemical
# T3 construct: made in house; host or cells: Pichia pastoris
# T3 sequence (Q14435 1-633): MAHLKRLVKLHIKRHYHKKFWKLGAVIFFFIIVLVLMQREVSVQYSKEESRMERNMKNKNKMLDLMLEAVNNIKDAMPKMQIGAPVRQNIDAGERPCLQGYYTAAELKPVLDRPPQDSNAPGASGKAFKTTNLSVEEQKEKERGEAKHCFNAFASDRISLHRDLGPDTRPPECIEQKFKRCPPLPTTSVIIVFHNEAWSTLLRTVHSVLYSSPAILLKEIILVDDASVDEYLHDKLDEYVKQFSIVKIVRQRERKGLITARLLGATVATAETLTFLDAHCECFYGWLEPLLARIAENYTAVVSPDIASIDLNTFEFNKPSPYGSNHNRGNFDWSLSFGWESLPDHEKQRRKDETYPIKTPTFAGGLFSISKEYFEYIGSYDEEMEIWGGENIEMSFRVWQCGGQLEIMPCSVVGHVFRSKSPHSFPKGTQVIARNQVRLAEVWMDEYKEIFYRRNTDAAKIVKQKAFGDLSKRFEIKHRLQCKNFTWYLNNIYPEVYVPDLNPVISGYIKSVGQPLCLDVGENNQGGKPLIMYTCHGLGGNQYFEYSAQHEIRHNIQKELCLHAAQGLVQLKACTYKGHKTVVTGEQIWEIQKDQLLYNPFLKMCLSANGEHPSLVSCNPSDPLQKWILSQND
# Protocol: as §1, §2, §3, §4, §5, §6, §7, §8, §9, §10, §11, §12, §13, §14, §15, §16, §17, §18
# [12] = calculated from IC50 by Cheng & Prusoff equation, MUC1a and UDP-GalNAc substrates
compound,measurement,setting,value
"OCc1cccs1 [Compound 5, 2-thiophenemethanol]",Relative inhibitory activity against GalNAc-T2,[1]; MUC1a as acceptor substrate,unable to inhibit the enzyme
O=c1cc(-c2ccc(O)c(O)c2)oc2cc(O)cc(O)c12 [luteolin],IC50,[2],14.7 µM
O=C(Nc1ccc(Nc2ccncc2)cc1)c1ccc(Nc2ccnc3ccc([N+](=O)[O-])cc23)cc1 [T3Inh-1],Activity against GalNAc-T3,[3],can act against GalNAc-T3
same,Activity against T2 variant,[4],no activity
same,Activity against T6 variant,[5],no activity
same,FGF23 levels in mice,[6],lower the FGF23 levels
CC(=O)N[C@H]1[C@@H](O[C@H](C)[C@H](NC(=O)[C@H](C)NC(=O)[C@H](C)NC(=O)[C@H](C)NC(=O)[C@H](C)NC(=O)[C@@H]2CCCN2C(=O)[C@@H](NC(=O)[C@@H]2CCCN2C(=O)[C@H](CSCc2cccs2)NC(=O)[C@@H]2CCCN2C(=O)[C@H](C)NC(=O)[C@H](C)NC(=O)CN)C(C)C)C(=O)N[C@@H](C)C(=O)N[C@@H](C)C(N)=O)O[C@H](CO)[C@H](O)[C@@H]1O [Compound 3] (H-GAAPC(X1)PVPAAAAT(αGalNAc)AA-NH2),IC50,[1],84.5 ± 25.9 µM
CC(=O)N[C@H]1[C@@H](O[C@H](C)[C@H](NC(=O)[C@H](C)NC(=O)[C@H](C)NC(=O)[C@H](C)NC(=O)[C@H](C)NC(=O)[C@@H]2CCCN2C(=O)[C@H](Cc2c[nH]c3ccccc23)NC(=O)[C@@H]2CCCN2C(=O)[C@H](CSCc2cccs2)NC(=O)[C@@H]2CCCN2)C(=O)N[C@@H](C)C(=O)N[C@@H](C)C(N)=O)O[C@H](CO)[C@H](O)[C@@H]1O [Compound 18] (H-PC(X1)PWPAAAAT(αGalNAc)AA-NH2),IC50,"[1]; MUC1a as acceptor substrate, read-out: IC50 against GalNAc-T2",55.7 ± 31.5 µM
N[C@@H](CSCc1cccs1)C(=O)O [Compound 16],Relative inhibitory activity against GalNAc-T2,[1]; MUC1a as acceptor substrate,unable to inhibit the enzyme
thiophene [Compound 15],Relative inhibitory activity against GalNAc-T2,[1]; MUC1a as acceptor substrate,unable to inhibit the enzyme
CC(=O)N[C@H]1[C@@H](O[C@H](C)[C@H](NC(=O)[C@H](C)NC(=O)[C@H](C)NC(=O)[C@H](C)NC(=O)[C@H](C)NC(=O)[C@@H]2CCCN2C(=O)[C@@H](NC(=O)[C@@H]2CCCN2C(=O)[C@H](CSCc2ccc3ccccc3n2)NC(=O)[C@@H]2CCCN2C(=O)[C@H](C)NC(=O)[C@H](C)NC(=O)CN)C(C)C)C(=O)N[C@@H](C)C(=O)N[C@@H](C)C(N)=O)O[C@H](CO)[C@H](O)[C@@H]1O [Compound 2] (H-GAAPC(X2)PVPAAAAT(αGalNAc)AA-NH2),IC50,[1],396 ± 172 µM
"CC(=O)N[C@H]1[C@@H](OP(=O)(O)OP(=O)(O)OC[C@H]2O[C@@H](n3ccc(=O)[nH]c3=O)[C@H](O)[C@@H]2O)O[C@H](CO)[C@H](O)[C@@H]1O [UDP-GalNAc, uridine diphosphate-GalNAc]",Km,[7]; read-out: Km(UDP-GalNAc) GalNAc-T1,62 µM
same,Km,[8]; read-out: Km(UDP-GalNAc) GalNAc-T2,0.01 mM
same,Km,[9]; read-out: Km(UDP-GalNAc) GalNAc-T3,29 µM
CC(=O)N[C@H]1[C@@H](O[C@H](C)[C@H](NC(=O)[C@H](C)NC(=O)[C@H](C)NC(=O)[C@@H](NC(=O)[C@H](CC(C)C)NC(=O)[C@@H]2CCCN2C(=O)[C@H](CC(C)C)NC(=O)[C@@H]2CCCN2C(=O)[C@H](CSCc2cccs2)NC(=O)[C@@H]2CCCN2)C(C)C)C(=O)N[C@@H](C)C(=O)N[C@@H](C)C(N)=O)O[C@H](CO)[C@H](O)[C@@H]1O [Compound 19] (H-PC(X1)PLPLVAAT(αGalNAc)AA-NH2),IC50,[1],21.4 ± 4.1 µM
same,IC50,"[10]; MUC1a as acceptor substrate, read-out: IC50 against GalNAc-T1",678 ± 197 µM
same,Ki,[10]; [12],668 µM
same,IC50,"[11]; MUC1a as acceptor substrate, read-out: IC50 against GalNAc-T3",171 ± 62.2 µM
same,Ki,[11]; [12],154 µM
MUC1a: model peptide acceptor substrate with sequence AHGVTSAPDTR,Km,[7]; read-out: Km(MUC1a) GalNAc-T1,660 µM
same,Km,[8]; read-out: Km(MUC1a) GalNAc-T2,2.13 mM
same,Km,[9]; read-out: Km(MUC1a) GalNAc-T3,90 µM
